Experimental data taken from patent US12558376B2, “Tissue repair by activated cells” (TECHNION RESEARCH & DEVELOPMENT FOUNDATION LIMITED, priority 2018, dated 2026).

Legend:
[1] = tested on: mesenchymal stem cells (MSCs); assay: Cytokine array of MSC conditioned medium (secretome); type: cell-based, human; conditions: gemcitabine-activated vs untreated MSCs
Method: Human bone marrow MSCs (LONZA, Switzerland) were cultured in minimum essential medium-alpha (αMEM) supplemented with 10% FBS 1% L-glutamine, 1% sodium-pyruvate, and 1% streptomycin. Medium was replaced every 3 days, and cells were maintained in culture for up to 7 passages.
After 72 hours, CM was collected.
The signals corresponding to each factor in the array were quantified by densitometry analysis.

PANC1 tumors = assay: Subcutaneous PANC1 tumors treated with gemcitabine: MSC homing; type: in vivo; conditions: PANC1 tumors in SCID mice, gemcitabine 500 mg/kg, after 72 hours; for MSC homing to tumors and proximity to CSCs (immunostaining): vs untreated control
Method: Eight-to-ten-week-old SCID mice were subcutaneously implanted with PANC1 cells (n=5 mice/group). […] Nuclei were stained with DAPI (blue). Red arrows represent CSCs whereas white arrows represent MSCs. Scale bar, 100 μm. FIG. 1B: Right Left side is a graph showing the distance between MSCs and CSCs as was measured and plotted (n>15 fields/group) and FIG. 1B left-right side is a graph showing the percentage of MSCs in tumor single cell suspensions was quantified by flow cytometry. […] After 3 days, the percentage of TICs in culture was assessed by flow cytometry. The use of animals and experimental protocols were approved by the Animal Care and Use Committee of the Technion. Human PANC1 (5×10^6 cells) were subcutaneously injected into the flank of eight-to-ten-week-old CB.17 female SCID mice (Harlan, Israel). Tumor size was assessed regularly with Vernier calipers using the formula width^2×length×0.5. […] Tumors or […] were embedded in […], Japan) and subsequently frozen at -80° C. […] Sections were fixed in cold acetone for 15 minutes. CSCs were stained with PE-conjugated antibodies against human prominin-1 (CD133, 1:250, Macs MiltenyiBiotec). […] Tumor sections were analyzed with a camera attached to an inverted microscope (Leica CTR 6000) using Leica Application suite Version 3.4.0 software or a LSM 700 Zeiss confocal microscope (Zeiss, Germany). Nuclei were stained with DAPI (Electron Microscopy Sciences, PA, USA).

In the case of `Nc1ccn([C@@H]2O[C@H](CO)[C@@H](O)C2(F)F)c(=O)n1` [gemcitabine], the “CXCL10 secretion in conditioned medium of MSCs” value [1] is reported as “highly elevated”, the “recruitment of MSCs to pancreatic tumors (percentage of MSCs, flow cytometry)” value (PANC1 tumors) is reported as “massive recruitment of MSCs” and the “MSC homing to tumors and proximity to CSCs (immunostaining)” value (PANC1 tumors) is reported as “MSCs home to tumors and locate in close proximity to CSCs”. For the same compound, the “MSC homing to tumors and proximity to CSCs (immunostaining)” value (PANC1 tumors; listed as Gemcitabine) was “promotes MSCs homing to tumors”.
